Test results reported in patent publication US9133224B2, “Macrocyclic kinase inhibitors” (OSI Pharmaceuticals, LLC, priority 2010, dated 2015).
Read-outs that look alike come from different tables or passages of the source.

What was measured:
[1] = molecular target: T1, GST-tagged full-length FAK enzyme (PTK2) (Homo sapiens, UniProt Q05397); assay: Biochemical Omnia Assay (FAK)
T1 construct: GST-tagged full-length FAK enzyme (PTK2, Invitrogen PV4085); GST; purchased Invitrogen PV4085
Protocol: Biochemical Omnia Assay Protocol
The Omnia Assay (Invitrogen) has been optimized for GST-tagged full-length FAK enzyme (PTK2, Invitrogen PV4085).
All compound concentrations were assayed in duplicate. Initial compound dilutions were prepared at 100× concentration in 100% DMSO from a 10 mM stock solution. Compounds were further diluted 1:25 in assay buffer resulting in a 4× concentrated solution.
In running the assay, 5 μL of the above 4× concentrated compound solution (or 4% DMSO for positive controls) was added to the assay plate followed by 5 μL of a solution containing peptide (40 μM) and ATP (200 μM) in assay buffer. The reaction was initiated by the addition of 10 μL of FAK (50 nM) in assay buffer, or assay buffer alone for negative controls. The increase in fluorescence due to peptide phosphorylation was monitored continuously as a function of time using a Spectramax M5 plate reader (Molecular Devices) equipped with SoftMax Pro 5.2 software.
IC50 values were determined from the slopes of the linear progress curves by non-linear curve-fitting using GraphPad Prism 5 (GraphPad Software, Inc.).

[2] = molecular target: T2, FAK (Homo sapiens, UniProt Q05397); assay: Cell-based capture ELISA for inhibition of FAK autophosphorylation [pY397] in U87MG cells
T2 construct: endogenous in cells; host or cells: U87MG glioblastoma cells (ATCC HTB-14)
T2 sequence (Q05397 whole entry): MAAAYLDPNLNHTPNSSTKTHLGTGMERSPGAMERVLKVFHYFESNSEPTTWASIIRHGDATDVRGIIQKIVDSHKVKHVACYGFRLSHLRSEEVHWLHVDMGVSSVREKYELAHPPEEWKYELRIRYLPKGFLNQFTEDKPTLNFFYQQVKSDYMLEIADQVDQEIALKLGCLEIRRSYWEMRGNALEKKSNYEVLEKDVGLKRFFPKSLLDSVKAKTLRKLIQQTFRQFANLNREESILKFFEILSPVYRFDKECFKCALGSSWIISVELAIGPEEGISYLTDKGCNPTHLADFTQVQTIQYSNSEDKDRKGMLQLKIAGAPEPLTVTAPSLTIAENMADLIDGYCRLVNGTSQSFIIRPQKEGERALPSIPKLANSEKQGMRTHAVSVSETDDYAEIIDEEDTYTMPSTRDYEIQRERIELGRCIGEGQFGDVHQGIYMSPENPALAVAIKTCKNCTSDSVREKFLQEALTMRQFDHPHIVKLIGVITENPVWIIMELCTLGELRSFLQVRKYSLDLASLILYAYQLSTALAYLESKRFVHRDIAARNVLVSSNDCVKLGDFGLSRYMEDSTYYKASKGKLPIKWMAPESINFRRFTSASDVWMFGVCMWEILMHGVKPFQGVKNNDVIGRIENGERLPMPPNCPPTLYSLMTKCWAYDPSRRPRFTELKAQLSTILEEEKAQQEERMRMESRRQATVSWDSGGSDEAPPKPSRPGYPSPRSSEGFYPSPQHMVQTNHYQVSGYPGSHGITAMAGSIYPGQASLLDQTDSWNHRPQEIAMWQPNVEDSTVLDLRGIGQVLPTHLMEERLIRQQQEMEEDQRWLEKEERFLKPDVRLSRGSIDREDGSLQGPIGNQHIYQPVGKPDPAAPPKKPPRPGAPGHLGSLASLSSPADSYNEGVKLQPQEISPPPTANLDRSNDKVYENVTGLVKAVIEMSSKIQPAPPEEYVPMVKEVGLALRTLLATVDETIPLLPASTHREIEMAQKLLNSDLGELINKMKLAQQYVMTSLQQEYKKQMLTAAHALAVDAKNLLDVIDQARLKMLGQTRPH
Protocol: Cell-Based Assays for Inhibition of FAK Autophosphorylation: MiaPaCa2 and U87MG
The ability of compounds to inhibit FAK autophosphorylation was determined in a cell-based capture ELISA assay using U87MG glioblastoma cells (ATCC, Cat # HTB-14) and the FAK [pY397]ELISA kit from Invitrogen (KHO0441). The assay determines the ability of compounds to block endogenous autophosphorylation of FAK stimulated by fibronectin. Cells plated on fibronectin coated 96-well plate were incubated with compounds at various concentrations in the complete growth medium for 2 h. Cell lysates were then prepared and FAK protein was captured onto a FAK antibody-coated 96-well ELISA plate. The phosphotyrosine content of FAK protein was then monitored by quantitation of degree of binding of an antibody that recognizes only the phosphorylated FAK at Y397 within the captured protein.
Reagents Provided in Biosource FAK [pY397]
Cultures of U87MG cells growing in MEM (Earles) containing non-essential amino acids, sodium pyruvate (1 mM), […] (1%) and 10% fetal bovine serum were detached by trypsin-EDTA and suspended in cell growth medium. Cells were then plated onto fibronectin (600 ng/well)-coated 96-well flat bottom plates at 1.7×10^4 cells per well in 60 uL cell growth medium and incubated overnight at 37° C. in a CO2 incubator.
Compound dilutions were prepared from 10 mM DMSO stocks by dilution in cell growth medium, the final concentration of DMSO in the assay being 0.6%. […] The cells were then incubated with compounds at 37° C. for 2 h. The medium was removed by aspiration and cells were lysed by addition of 20 uL of ice-cold cell lysis buffer per well. The plates were kept on ice for 20 min and 50 uL of standard diluent was added to each well. 50 uL of cell lysate from each well was transferred to respective wells in an assay plate and 50 uL of detection antibody was added to all wells except H1-H6 which were no antibody control wells. Capture assay plates were incubated overnight in a cold room.
Following incubation of the cell lysates and detection antibodies in the ELISA plate, the wells were washed 4 times with 120 uL of wash buffer (1×), then 100 uL of diluted HRP conjugated antibody (1:100 dil in diluent) was added to each well, and the plate was incubated at RT for 30 min. The wells were then washed for 4 times with 120 uL of wash buffer (1×) and 100 uL of chromogen was added to each well and incubated in the dark at RT for 5-10 min. 100 uL of stop solution was added to each well and the absorbance measured at 450 nm, 0.1 s.
Comparison of the assay signals obtained in the presence of compound with those of positive and negative controls (cells with no compound and no detection antibody being added), allows degree of inhibition of phospho-FAK [Y397] to be determined over a range of compound concentrations. […] The assay as described above was modified to determine the effect of inclusion of 50% (v/v) mouse or human plasma. In this assay, the compound plate was prepared as 2× concentration in 100 uL of 100% mouse or human plasma, and 60 uL of this was added to 60 uL of culture medium and incubated at 37° C. incubator for 2 h. The rest of the assay was carried out as described above.

[3] = 50% (v/v) human plasma, mean IC50, read-out: FAK Activity Mechanistic (U87MG) HP
[4] = no plasma present, mean IC50, read-out: FAK Activity Mechanistic (U87MG) NP
[5] = mean IC50, [ATP] = 50uM, read-out: FAK Activity Biochemical OMNIA, [ATP] = 50uM
[6] = 50% (v/v) mouse plasma, mean IC50, read-out: FAK Activity Mechanistic (U87MG) MP

T1 sequence (Q05397 whole entry): as above

SMILES	IC50 [1]	IC50 [2, 3]	IC50 [2, 4]	IC50 [1, 5]	IC50 [2, 6]
CCOP1(=O)Cc2ccc(c(OC)c2)Nc2ncc(C(F)(F)F)c(n2)Nc2ccc(c3c2C(=O)N(C)C3)-c2cnn(c2)C[C@H](O)CO1 (mixture of isomers) [Example 5]	< 0.4 µM	< 0.4 µM	< 0.4 µM		
CCO[P@@]1(=O)Cc2ccc(c(OC)c2)Nc2ncc(C(F)(F)F)c(n2)Nc2cc(F)c(cc2C(=O)NC)-c2cnn(c2)CCCO1.CCO[P@]1(=O)Cc2ccc(c(OC)c2)Nc2ncc(C(F)(F)F)c(n2)Nc2cc(F)c(cc2C(=O)NC)-c2cnn(c2)CCCO1 (mixture of isomers) [Example 7]		< 0.4 µM	< 0.4 µM	< 0.4 µM	< 0.4 µM
CCOP1(=O)Cc2ccc(c(OC)c2)Nc2ncc(C(F)(F)F)c(n2)Nc2ccc(nc2C(=O)NC)-c2cnn(c2)CC(C)CO1 (mixture of isomers) [Example 19]		< 0.4 µM	< 0.4 µM	< 0.4 µM	
CCOP1(=O)Cc2ccc(cc2)Nc2ncc(C(F)(F)F)c(n2)Nc2ccc(nc2C(=O)NC)-c2cnn(c2)CC(C)CO1 (mixture of isomers) [Example 21]		< 0.4 µM	< 0.4 µM	< 0.4 µM	
CCOP1(=O)Cc2ccc(c(OC)c2)Nc2ncc(C(F)(F)F)c(n2)Nc2ccc(nc2C(=O)NC)-c2cnn(c2)CC[C@@H](C)O1 (mixture of isomers) [Example 69]		< 0.4 µM	< 0.4 µM		
CCOP1(=O)Cc2ccc(c(OC)c2)Nc2ncc(C(F)(F)F)c(n2)Nc2ccc(nc2C(=O)NC)-c2cnn(c2)CC[C@H](C)O1 (mixture of isomers) [Example 70]		< 0.4 µM	< 0.4 µM		0.4 to 4 µM
CCOP1(=O)Cc2ccc(c(OC)c2)Nc2ncc(C(F)(F)F)c(n2)Nc2ccc(c3c2C(=O)N(C)C3)-c2cnn(c2)CCCO1 (racemic) [Example 1]	< 0.4 µM	< 0.4 µM	< 0.4 µM		
CCOP1(=O)Cc2ccc(cc2)Nc2ncc(C(F)(F)F)c(n2)Nc2ccc(c3c2C(=O)N(C)C3)-c2cnn(c2)CCCO1 (racemic) [Example 2]	< 0.4 µM	< 0.4 µM			
CCOP1(=O)Cc2ccc(c(OC)c2)Nc2ncc(C(F)(F)F)c(n2)Nc2ccc(cc2C(=O)NC)-c2cnn(c2)CCCO1 (racemic) [Example 4]	< 0.4 µM	< 0.4 µM	< 0.4 µM		
CCOP1(=O)Cc2ccc(c(OC)c2)Nc2ncc(C(F)(F)F)c(n2)Nc2ccc(nc2C(=O)NC)-c2cnn(c2)CCCO1 (racemic) [Example 6]	< 0.4 µM	< 0.4 µM	< 0.4 µM		
CCOP1(=O)Cc2ccc(cc2)Nc2ncc(C(F)(F)F)c(n2)Nc2ccc(cc2C(=O)NC)-c2cnn(c2)CCCO1 (racemic) [Example 8]	< 0.4 µM	< 0.4 µM	< 0.4 µM		
CCNC(=O)c1cc2ccc1Nc1nc(ncc1C(F)(F)F)Nc1ccc(cc1OC)CP(=O)(OCC)OCCCn1cc-2cn1 (racemic) [Example 9]	< 0.4 µM	< 0.4 µM	< 0.4 µM		0.4 to 4 µM
CCOP1(=O)Cc2ccc(c(OC)c2)Nc2ncc(C(F)(F)F)c(n2)Nc2ccc(nc2C(=O)NC)-c2cnn(c2)CC2(CC2)CO1 (racemic) [Example 63]		< 0.4 µM	< 0.4 µM		
CCP1(=O)Cc2ccc(c(OC)c2)Nc2ncc(C(F)(F)F)c(n2)Nc2ccc(nc2C(=O)NC)-c2cnn(c2)CC2(CC2)CO1 (racemic) [Example 71]		< 0.4 µM	< 0.4 µM		< 0.4 µM
CNC(=O)c1nc2ccc1Nc1nc(ncc1C(F)(F)F)Nc1ccc(cc1OC)CP(=O)(OC(C)C)OCCCn1cc-2cn1 (racemic) [Example 72]		< 0.4 µM	< 0.4 µM		< 0.4 µM
CNC(=O)c1nc2ccc1Nc1nc(ncc1C(F)(F)F)Nc1ccc(cc1OC)CP(C)(=O)OCCCn1cc-2cn1 (single isomer, unassigned) [Example 61B]				< 0.4 µM	
CNC(=O)c1nc2ccc1Nc1nc(ncc1C(F)(F)F)Nc1ccc(cc1OC)CP(=O)(OC(C)C)OCCCn1cc-2cn1 (single isomer, unassigned) [Example 72A]		0.4 to 4 µM	< 0.4 µM		< 0.4 µM
